Data set [1] is described as follows: Chemical stability studies in aqueous media, monitored by HPLC. In kind it is physicochemical. Conditions: for stability in 50 mM phosphate buffer at pH 7.4 or aqueous 0.01 N NaOH: HPLC Method 1; for stability in aqueous 0.01 N HCl and de-ionized water at pH 5.6: freshly prepared solutions. As for the experimental part: (2) de-ionized water at pH 5.6;
(3) 50 mM phosphate buffer at pH 7.4; and […]

The conditions of data set [2]: prior-art / published chelators; 1×10^−5 M chelator and 1×10^−6 M Fe(III); cited from earlier work.
Data set [3] is classed as physicochemical. The text has this:
The term “log kBMC” refers to the logarithm of the chromatographic capacity factor (reference retention time) in BMC, a special type of HPLC (Escuder-Gilabert, L., et al., Journal of Chromatography B, 2004, 807, 193-201). This analytical technique was used to correlate the log kBMC of 31 reference drug substances with known experimentally determined log BB values. A linear regression mathematical equation log BB=a(log kBMC)+b was obtained from these reference drug substances wherein a and b are constants. The log kBMC of the compounds of the present invention was measured by BMC. The experimental log kBMC of the compounds of the present invention was fit into the log BB=a(log KBMC) b equation to obtain a calculated log BB value. The calculated log BB is an indicator of the BBB penetration property of the compounds of the present invention.
FIG. 1 provides a table illustrating the physical properties of selected compounds of formula (I) according to the present invention. […] The chromatographic capacity factor kBMC of 31 reference drug substances with known experimentally determined log BB values were recorded (FIGS. 2 and 3). […] We used the above equation to compute a calculated log BB value of the compounds of the present invention as an estimate of the BBB penetration properties of the compounds. Deferiprone is known to penetrate the BBB and has a calculated log BB value of −1.05. […]

Data set [4] is described as follows: In vivo pharmacokinetic (PK) and blood brain barrier (BBB) studies, cassette dosing. Also on record: species or system male Sprague-Dawley rats. The conditions noted are these: tail vein injection, rat; for AUC brain* / AUC: normalized to 2 mg/kg dose; for Kp at 5 min / Kp / AUC: male, Sprague-Dawley; for Kp at 5 min / Kp: brain/plasma, intravenous; for Kp at 5 min: read-out: Brain/Plasma ratio at 5 min; for Kp: read-out: AUC brain/AUC plasma; for AUC: iv, plasma. As for the experimental part: In vivo pharmacokinetic (PK) and blood brain barrier (BBB) studies were conducted in male Sprague-Dawley rats using cassette dosing. The topic of cassette dosing has been reviewed by Manitpisitkul, P. and White, R. E. (August 2004), Drug Discovery, Vol 9. No. 15, pp. 652-658. The mode of administration was through tail vein injection.

The conditions of data set [5]: pH 7.4; cited from earlier work.

The structures appear in SMILES notation.

For the molecule `Cn1cc(O)c(=O)cc1CF` [compound (vii), 2-fluoromethyl-5-hydroxy-1-methyl-1H-pyridin-4-one], the “fraction of compound remaining” value in data set [1] (50 mM phosphate buffer at pH 7.4, after 5 hrs) is on record as “about half”. Moreover, the “time stable in MeOH” value in data set [1] (MeOH) is “at least 4 hrs”. In addition, in data set [1] (aqueous 0.01 N NaOH), the “stability in aqueous 0.01 N NaOH” value was “decomposed rapidly”. The “stability in pH 7.4 phosphate buffer and 0.01 M sodium hydroxide” value in data set [1] is on record as “unstable”.

Take `Cc1cc(=O)c(O)c(CF)n1C` [compound (C)]: in data set [1], the “stability in aqueous solution” value is listed as “unstable”.

For `CNC(=O)c1c(O)c(=O)cc(C)n1C` [CP502], in data set [2], the “pFe(III) / pFe^3+” value is recorded as 21.

Take `Cc1cc(=O)c(O)c(C(F)F)n1C` [(iv), 2-difluoromethyl-3-hydroxy-1,6-dimethyl-1H-pyridin-4-one]: in data set [1], the “stability in 50 mM phosphate buffer at pH 7.4 or aqueous 0.01 N NaOH” value was “almost instantaneously hydrolysed to their corresponding aldehydes”; the “stability in aqueous 0.01 N HCl and de-ionized water at pH 5.6” value is listed as “stable”.

Consider `Cc1cc(=O)c(O)c(C(O)C(F)(F)F)n1C` (stereo not drawn) [Apo6729, 3-hydroxy-1,6-dimethyl-2-(2,2,2-trifluoro-1-hydroxy-ethyl)-1H-pyridin-4-one], for which, in data set [1] (0.1N HCl, 50 mM phosphate buffer at pH 7.4, 0.1 N NaOH, room temperature), the “time stable in 0.1N HCl, 50 mM phosphate buffer pH 7.4 and 0.1 N NaOH” value is given as “at least 21 hrs”.

As a reminder, the AUC is concentration integrated over time. Consider `Cc1c(O)c(=O)ccn1C` [Deferiprone, 3-hydroxy-1,2-dimethyl-1H-pyridin-4-one], for which, in data set [3], the “calculated log BB” value is recorded as −1.05. Moreover, in data set [4], the “AUC brain*” value stood at 860 ng·h/mL, the Kp at 5 min stood at 0.45, the Kp amounted to 0.79 and the AUC worked out at 1080 ng·h/mL. In data set [4], the Kα was determined as 1.36 h⁻¹, the Kβ was found to be 0.215 h⁻¹, the t1/2α was 0.51 h and the t1/2β was 3.22 h. Besides, the distribution coefficient in data set [5] is on record as 0.17.

With `Cn1ccc(=O)c(O)c1C(F)F` [(v), 2-difluoromethyl-3-hydroxy-1-methyl-1H-pyridin-4-one], in data set [1], the “stability in 50 mM phosphate buffer at pH 7.4 or aqueous 0.01 N NaOH” value is recorded as “almost instantaneously hydrolysed to their corresponding aldehydes”; the “stability in aqueous 0.01 N HCl and de-ionized water at pH 5.6” value is listed as “stable”; the “stability in pH 7.4 phosphate buffer and 0.01 M sodium hydroxide” value was “unstable”.

As to `Cn1ccc(=O)c(O)c1CC(F)(F)F` [Apo6825, 3-hydroxy-1-methyl-2-(2,2,2-trifluoro-ethyl)-1H-pyridin-4-one], in data set [4], the “AUC brain*” value stood at 2730 ng·h/mL, the Kp at 5 min amounted to 0.46, the Kp came out at 0.6 and the AUC turned out to be 4520 ng·h/mL. Moreover, in data set [4], the Kα came to 0.68 h⁻¹, the Kβ came to 0.133 h⁻¹, the t1/2α stood at 1.02 h and the t1/2β was determined as 5.21 h.

In the case of `Cc1c(O)c(=O)c(CC(F)(F)F)cn1C` [Apo6855, 3-Hydroxy-1,2-dimethyl-5-(2,2,2-trifluoro-ethyl)-1H-pyridin-4-one], in data set [4], the “AUC brain*” value came out at 580 ng·h/mL, the Kp at 5 min stood at 0.5, the Kp was 0.65 and the AUC was 890 ng·h/mL. Moreover, in data set [4], the Kα was 2.37 h⁻¹, the Kβ worked out at 0.136 h⁻¹, the t1/2α turned out to be 0.29 h and the t1/2β is 5.10 h.

Take `Cn1cc(O)c(=O)cc1CF` [(D)]: the “stability in aqueous solution” value in data set [1] is reported as “unstable”.

(Values after patent US8673943B2, “Fluorinated derivatives of deferiprone” (Apotex Technologies Inc., priority 2007, dated 2014).)
